Consider one compound from US6479070B1, “Compositions containing pinolenic acid and its use as a health component” (Unilever Patent Holdings, priority 1999, dated 2002).

The test relates to PMA stimulated PGE2 Levels in Human Skin Fibroblasts. Particulars: primary human foreskin fibroblasts, pinolenic acid even at levels of 10 ng/ml, 24 h pre-incubation. The method, then:
A reduction of the levels of ICAM and PGE2 is indicative for the anti-inflammatory effect. Primary human foreskin fibroblasts at passage 2 (P2) were seeded into 96-well plates at 10000 cells/well and maintained for 24 hours in an atmosphere of 5% carbon dioxide in Dulbeccos Modified Eagles Medium (DMEM) supplemented with 10% foetal calf serum. […] PMA represents an external stressor which induces oxidative stress and inflammatory responses in cells. The fibroblasts/media were then analysed as described below immediately or snap frozen in liquid nitrogen and stored at −70° C. for future analysis. […] PGE2 levels in the medium were determined with a Biotrak PGE2 immunoassay kit (Amersham, UK). The assay is based on the competition between unlabelled PGE2 in the sample and a fixed quantity of horseradish peroxidase labelled PGE2 for a limited amount of fixed PGE2 specific antibody. Concentrations of unlabelled sample PGE2 are determined according to a standard curve which was obtained at the same time.

The structures appear in SMILES notation.

Turning to `CCCCC/C=C\C/C=C\CC/C=C\CCCC(=O)O` [Pinolenic acid, 5,9,12 C18:3 fatty acid], the “inflammatory response as measured by PGE2 production” value is “dramatically reduces the inflammatory response”.
